From US11571480B2, “Multi-ligand drug conjugates and uses thereof” (priority 2015, dated 2023)

Experiments:
[1] = tested on: human nasopharyngeal cancer cell line KB; experiment: Cytotoxicity test of conjugate LDC13B; assay type: cell-based
Protocol: (§1) Culture medium: RPMI 1640 Medium, no folic acid
1) human nasopharyngeal cancer cell line KB, human colon carcinoma HCT-116, human prostatic cancer cell PC-3, human gastric cancer cell line GTL-16, human endometrial cancer cell HEC-1A, and human gastric cancer cell N87 were incubated at 37° C., 5% CO2 in RPMI 1640 medium containing 10% fetal bovine serum, the cells were passaged every 2-3 days.
2) human nasopharyngeal cancer cell line KB, human colon carcinoma HCT-116, human prostatic cancer cell PC-3, human gastric cancer cell line GTL-16, human endometrial cancer cell HEC-1A, and human gastric cancer cell N87 were plated at 1×10^3 cells per well (96-well plate) and incubated for 8-12 h at 37° C., 5% CO2.
(§2) 3) Stock solutions of LDC conjugates or control were prepared in PBS solution. 100 μL/well of serially diluted LDC conjugates or control was added to the cells in the plate and incubated for 15-30 min at 37° C., 5% CO2. The culture medium in the wells was then removed by aspiration and the cells were incubated in fresh culture medium without conjugates (150 μL/well) for 2-3 days at 37° C., 5% CO2.
(§3) 4) CellTiter 96® Aqueous One Solution Cell Proliferation Assay (Promega) was added to each well to measure the amount of […] cells, and the plate was incubated in an incubator for 1 h at 37° C., 5% CO2.
(§4) 5) the plate was read at 490 nm on a microplate reader, and the cell survivals were compared for cells with or without the treatment of LDC conjugates. The LDC drug concentrations that are required for 50% cell death (IC50 values) were determined.

Transplanted H460 tumor = experiment: Inhibitory assay of conjugate LDC13B against xenograf tumors; assay type: in vivo, nude mice; settings: for Body weight of mice / Tumor size: H460 tumor
Protocol: (§5) Animal: nude mice, aged 6-8 weeks, female
1) human large cell lung cancer cell H460 were incubated at 37° C., 5% CO2 in IMDM medium containing 10% fetal bovine serum, the cells were passaged every 2-3 days.
2) generation of tumors: 7×10^6 tumor cells were injected subcutaneously into the back of nude mice, and the mice were grouped for treatment after the tumor sizes were as large as about 200 mm^3.
3) treatment: 3 mice/group, treated with LDC13B as well as controls MMAE and PBS with doses of 2.5 and 5 mg/kg every 3 days, four injections.
(§6) 4) the physical performance, body weights and tumor sizes of the animals were monitored. The number of animal death was recorded during the experiment.

melanoma cell line A375 = experiment: Cytotoxicity test of conjugate LDC1013; assay type: cell-based
Protocol: as §1
1) human nasopharyngeal cancer cell line KB, melanoma cell line A375, and human lung cancer cell H460 were incubated at 37° C., 5% CO2 in RPMI 1640 medium containing 10% fetal bovine serum, the cells were passaged every 2-3 days.
2) human nasopharyngeal cancer cell line KB, melanoma cell line A375, and human lung cancer cell H460 were plated at 1×10^3 cells per well (96-well plate) and incubated for 8-12 h at 37° C., 5% CO2.
as §2, §3, §4

[2] = tested on: Transplanted HCC1954 tumor; experiment: Inhibitory assay of conjugate LDC1013 against xenograf tumors; assay type: in vivo, nude mice; settings: for Body weight of mice / Tumor size: HCC1954 tumor
Protocol: as §5
1) Human breast cancer cells HCC1954 were incubated at 37° C., 5% CO2 in IMDM medium containing 10% fetal bovine serum, the cells were passaged every 2-3 days.
2) generation of tumors: 7×10^6 tumor cells were injected subcutaneously into the back of nude mice, and the mice were grouped for treatment after the tumor sizes were as large as about 180-320 mm^3. […]
as §6

[3] = 2.5 mg/kg, 3 days after Injection 1
[4] = 2.5 mg/kg, 3 days after Injection 2
[5] = 2.5 mg/kg, 3 days after Injection 3
[6] = 2.5 mg/kg, 3 days after Injection 4
[7] = 5 mg/kg, 3 days after Injection 1
[8] = 5 mg/kg, 3 days after Injection 2
[9] = 5 mg/kg, 3 days after Injection 3
[10] = 5 mg/kg, 3 days after Injection 4
[11] = 2.5 mg/kg, 4 days after Injection 5
[12] = 2.5 mg/kg, 5 days after Injection 6
[13] = 2.5 mg/kg, 6 days after Injection 7
[14] = 5 mg/kg, 4 days after Injection 5
[15] = 5 mg/kg, 5 days after Injection 6

## CC[C@H](C)[C@@H]([C@@H](CC(=O)N1CCC[C@H]1[C@H](OC)[C@@H](C)C(=O)N[C@H](C)[C@@H](O)c1ccccc1)OC)N(C)C(=O)[C@@H](NC(=O)[C@H](C(C)C)N(C)C(=O)OCc1ccc(NC(=O)[C@H](CCCNC(N)=O)NC(=O)[C@@H](NC(=O)CCCCCN2C(=O)CC(SC[C@H](NC(=O)CC[C@H](NC(=O)c3ccc(NCc4cnc5[nH]c(N)nc(=O)c5n4)cc3)C(=O)O)C(=O)NCCCC[C@@H](NC(=O)[C@H](Cc3ccc(O)cc3)NC(=O)[C@H](CO)NC(=O)[C@H](Cc3c[nH]c4ccccc34)NC(=O)[C@H](Cc3c[nH]cn3)NC(=O)[C@@H]3CCC(=O)N3)C(=O)N[C@@H](CC(C)C)C(=O)N[C@@H](CCCNC(=N)N)C(=O)N3CCC[C@H]3C(=O)NCC(N)=O)C2=O)C(C)C)cc1)C(C)C (some centres unmarked) [LDC13B]
[1]
  more potent than either of the single-ligand drug conjugates LDC1 and LDC13A: 2-10 fold
Transplanted H460 tumor; H460, 2.5 mg/kg dose
  tumor response (in words): shrank rapidly
Transplanted H460 tumor; H460, after four injections at 5 mg/kg
  tumor response (in words): completely disappeared
Transplanted H460 tumor; [3]
  Body weight of mice: 22.73 g
  Tumor size: 384 mm^3
Transplanted H460 tumor; [4]
  Body weight of mice: 22.65 g
  Tumor size: 384 mm^3
Transplanted H460 tumor; [5]
  Body weight of mice: 22.47 g
  Tumor size: 144 mm^3
Transplanted H460 tumor; [6]
  Body weight of mice: 21.76 g
  Tumor size: 144 mm^3
Transplanted H460 tumor; 2.5 mg/kg, Before Injection
  Body weight of mice: 22.7 g
  Tumor size: 294 mm^3
Transplanted H460 tumor; [7]
  Body weight of mice: 18.36 g
  Tumor size: 144 mm^3
Transplanted H460 tumor; [8]
  Body weight of mice: 19.65 g
  Tumor size: 40 mm^3
Transplanted H460 tumor; [9]
  Body weight of mice: 18.21 g
  Tumor size: 18 mm^3
Transplanted H460 tumor; [10]
  Body weight of mice: 18.22 g
  Tumor size: 13.5 mm^3
Transplanted H460 tumor; 5 mg/kg, Before Injection
  Body weight of mice: 20.95 g
  Tumor size: 196 mm^3

## CC[C@H](C)[C@@H]([C@@H](CC(=O)N1CCC[C@H]1[C@H](OC)[C@@H](C)C(=O)N[C@H](C)[C@@H](O)c1ccccc1)OC)N(C)C(=O)[C@@H](NC(=O)[C@H](C(C)C)N(C)C(=O)OCc1ccc(NC(=O)[C@H](CCCNC(N)=O)NC(=O)[C@@H](NC(=O)CCCCCN2C(=O)CC(SC[C@H](NC(=O)[C@H](CCCNC(=N)N)NC(=O)[C@H](CCCNC(=N)N)NC(=O)[C@H](CCCNC(=N)N)NC(=O)[C@H](CCCNC(=N)N)NC(=O)[C@H](CCCNC(=N)N)NC(=O)[C@H](CCCNC(=N)N)NC(=O)[C@H](CCCNC(=N)N)NC(=O)[C@H](CCCNC(=N)N)NC(=O)[C@@H](N)CCCNC(=N)N)C(=O)NCCCC[C@H](NC(=O)[C@H](Cc3ccc(O)cc3)NC(=O)[C@H](CO)NC(=O)[C@H](Cc3c[nH]c4ccccc34)NC(=O)[C@H](Cc3c[nH]cn3)NC(=O)[C@@H]3CCC(=O)N3)C(=O)N[C@@H](CC(C)C)C(=O)N[C@@H](CCCNC(=N)N)C(=O)N3CCC[C@H]3C(=O)NCC(N)=O)C2=O)C(C)C)cc1)C(C)C (some centres unmarked) [LDC1013]
Melanoma cell line A375
  less toxic for A375 than for H460 and KB, respectively: 10-100 fold
[2]; HCC1954, 7 doses at 2.5 mg/kg and 7 doses of 5 mg/kg injected every three days
  tumor response (in words): completely eliminate
[2]; [3]
  Body weight of mice: 24.46 g
  Tumor size: 198 mm^3
[2]; [4]
  Body weight of mice: 24.54 g
  Tumor size: 198 mm^3
[2]; [5]
  Body weight of mice: 23.94 g
  Tumor size: 180 mm^3
[2]; [6]
  Body weight of mice: 24.3 g
  Tumor size: 113 mm^3
[2]; [11]
  Body weight of mice: 24.98 g
  Tumor size: 64 mm^3
[2]; [12]
  Body weight of mice: 24.73 g
  Tumor size: 22 mm^3
[2]; [13]
  Body weight of mice: 24.43 g
  Tumor size: 0 mm^3
[2]; 2.5 mg/kg, Before Injection
  Body weight of mice: 24.14 g
  Tumor size: 180 mm^3
[2]; [7]
  Body weight of mice: 20.7 g
  Tumor size: 405 mm^3
[2]; [8]
  Body weight of mice: 20.43 g
  Tumor size: 405 mm^3
[2]; [9]
  Body weight of mice: 21.31 g
  Tumor size: 288 mm^3
[2]; [10]
  Body weight of mice: 21.15 g
  Tumor size: 88 mm^3
[2]; [14]
  Body weight of mice: 21.21 g
  Tumor size: 40 mm^3
[2]; [15]
  Body weight of mice: 20.49 g
  Tumor size: 0 mm^3
[2]; 5 mg/kg, 6 days after Injection 7
  Body weight of mice: 24.49 g
[2]; 5 mg/kg, Before Injection
  Body weight of mice: 21.92 g
  Tumor size: 320 mm^3
